Assay results: patent publication US8324241B2, “Triazolo compounds useful as DGAT1 inhibitors” (Bristol-Myers Squibb Company, priority 2008, dated 2012)

Target: T1, recombinant human DGAT1 (Homo sapiens, UniProt O75907)
T1 construct: made in house; host or cells: Sf9 insect cells (baculovirus), used as a membrane preparation
T1 sequence (O75907 1-488): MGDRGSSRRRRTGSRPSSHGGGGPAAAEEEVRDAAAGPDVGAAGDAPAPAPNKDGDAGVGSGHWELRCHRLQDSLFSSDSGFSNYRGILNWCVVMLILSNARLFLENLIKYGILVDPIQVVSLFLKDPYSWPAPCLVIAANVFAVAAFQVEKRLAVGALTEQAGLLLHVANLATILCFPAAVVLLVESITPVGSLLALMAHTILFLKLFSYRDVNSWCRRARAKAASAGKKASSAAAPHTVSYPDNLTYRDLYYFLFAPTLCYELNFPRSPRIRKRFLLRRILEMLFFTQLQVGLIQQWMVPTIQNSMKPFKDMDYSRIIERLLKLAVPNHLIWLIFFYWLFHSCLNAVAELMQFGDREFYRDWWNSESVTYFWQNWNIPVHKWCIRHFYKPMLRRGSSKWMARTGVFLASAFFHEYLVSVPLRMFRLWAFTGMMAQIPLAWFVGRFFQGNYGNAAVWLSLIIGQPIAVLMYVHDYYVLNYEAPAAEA
Test: DGAT1 enzyme assay (SPA, membranes from Sf9 insect cells)
Type: biochemical
Conditions: 300 ng recombinant human DGAT1 membrane (Sf9), 25 μM 2-monooleoylglycerol, 25 μM [3H]-stearoyl-CoA, pH 7.4, 30 min, 25° C.; read-out: DGAT1 Enzyme Assay IC50 (inhibition)
Method: DGAT1 enzyme assays were conducted using membranes isolated from Sf9 insect cells expressing the recombinant human DGAT1 cDNA. The assays were conducted in 384-well plates with total volume of 25 μl at 25° C. In each assay, 300 ng of recombinant human DGAT1 membrane was incubated with 25 μM of 2-monooleoylglycerol and 25 μM of [^3H]-stearoyl-CoA in 100 mM potassium phosphate (pH 7.4) for 30 min with various concentrations of compounds delivered in DMSO. The assay was terminated by the addition of 30 μl of Stopping Solution [50 mM HEPES, 5 mg/mL Yttrium Oxide (YOX) Polylysine SPA beads, 3.33 mg/mL Fraction V BSA, 200 μM Mercuric chloride]. The signal was measured using LEADSEEKER^SM for 5 minutes. To calculate the degree of inhibition, the zero level of enzyme activity (blank) was defined by the above assay using Sf9 cell membrane uninfected with baculovirus and the 100% level of DGAT1 enzyme activity was defined by human DGAT1 assay with the vehicle DMSO. The IC50 values of inhibitors were determined by Excel-fit.

IC50 [µM]	Compound
0.17	O=C(O)CNC(=O)c1cccn2c(-c3ccc(NC(=O)Nc4ccccc4OC(F)(F)F)cc3)nnc12 [Example 5]
0.15	O=C(O)CCNC(=O)c1cccn2c(-c3ccc(NC(=O)Nc4ccccc4OC(F)(F)F)cc3)nnc12 [Example 6]
0.15	O=C(Nc1ccc(-c2nnc3c(C(=O)N[C@@H](Cc4ccccc4)C(=O)O)cccn23)cc1)Nc1ccccc1OC(F)(F)F [Example 11]
0.18	O=C(Nc1ccc(-c2nnc3c(C(=O)N[C@H](C(=O)O)C4CCCCC4)cccn23)cc1)Nc1ccccc1OC(F)(F)F [Example 14]
0.003	CC[C@H](C)[C@H](NC(=O)c1cccn2c(-c3ccc(NC(=O)Nc4ccccc4OC(F)(F)F)cc3)nnc12)C(=O)O [Example 16]
31	COC(=O)Nc1ccc(-c2nnc3c(C(=O)N4CCC[C@H]4C(=O)O)cccn23)cc1 [Example 22, (S)-1-(3-(4-(Methoxycarbonylamino)phenyl)-[1,2,4]triazolo[4,3-a]pyridine-8-carbonyl)pyrrolidine-2-carboxylic acid]
43	CCC(=O)Nc1ccc(-c2nnc3c(C(=O)N[C@H](C(=O)O)C(C)C)cccn23)cc1 [Example 23, (S)-3-Methyl-2-(3-(4-propionamidophenyl)-[1,2,4]triazolo[4,3-a]pyridine-8-carboxamido)butanoic acid]
0.007	CC(C)[C@H](NC(=O)c1cccn2c(-c3ccc(Nc4nc5ccc(Cl)cc5s4)cc3)nnc12)C(=O)O [Example 25, (S)-2-(3-(4-(6-Chlorobenzo[d]thiazol-2-ylamino)phenyl)-[1,2,4-]triazolo[4,3-a]pyridine-8-carboxamido)-3-methylbutanoic acid]
0.005	CC[C@H](NC(=O)c1cccn2c(-c3ccc(Nc4nc5ccc(Cl)cc5s4)cc3)nnc12)C(=O)O [Example 41]
28	C[C@@H](NC(=O)c1cccn2c(-c3ccc(Nc4nccs4)cc3)nnc12)C(=O)O [Example 47]
23	O=C(O)CNC(=O)c1cccn2c(-c3ccc(Nc4nccs4)cc3)nnc12 [Example 53]
0.007	CC(C)[C@H](NC(=O)c1nccn2c(-c3ccc(Nc4nc5ccc(Cl)cc5s4)cc3)nnc12)C(=O)O [Example 63, (S)-2-(3-(4-(6-Chlorobenzothiazol-2-ylamino)phenyl)-[1,2,4]triazolo[4,3-a]pyrazine-8-carboxamido)-3-methylbutanoic acid]
